The subject of assay [1] is reverse passive Arthus reaction (blueing by antigen and antibody). Description: Reverse Passive Arthus Reaction (RPA). The format is in vivo, Male SD rats. Particulars: rat. As for the experimental part:
Male SD rats weighing between 200 and 300 g were used. Test compounds were dissolved in dimethyl sulfoxide and 1 ml/kg of this stock solution (100 mg/ml), on serial dilutions were injected intraperitoneally one hour before administration of the antigen or given orally. The animals were anesthetized inhalationally with isoflurane and then injected through the penile vein with 1 ml of a solution of 2.5 mg of Evan's blue dye and 5.0 mg of human serum albumin in 1 ml of saline. This treatment was followed immediately by intracutaneous injections of 0.075 ml of anti-human albumin diluated to contain 4.38 mg/ml of antibody at 2 sites opposite the midline back. Anesthesia was terminated and after three hours, the animals were sacrificed. The skin was removed and the blue stained areas cut out. The skin patches were soaked overnight in stoppered tubes containing 2 ml of 1N potassium hydroxide at 5° C. Then 9 ml of a mixture of five parts of a 1.2N phosphoric acid and thirteen parts of acetone were added to the tubes. The tube contents were agitated and centrifuged, and the absorbance measured at 620 nm. The data were calculated as inhibition of blueing by test compound compared to control animals receiving only antigen and antibody.

Assay [2] concerns plasma fibrinogen in arthritis model. Description: Adjuvant arthritis test: inhibition of adjuvant-elevated plasma fibrinogen in rats. The format is in vivo, Male Sprague Dawley rats. Particulars: rat.
In assay [3] the test system is ear edema caused by oxazolone. Description: Inhibition of Ear Edema Caused by Oxazolone. Particulars: mouse, 24 hours. The format is in vivo, CF-1 mice. The procedure: CF-1 mice, 25-30 g body weight, six animals per group were used. The mice were sensitized to the irritant two weeks prior to the test by dribbling 100 μL of a 3% solution of oxazolone in acetone onto the scrotum of the animal. Test compounds were administered orally at doses of 100 mg/kg and 300 mg/kg for 1 hour prior to oxazolone, intraperitoneally as follows: The test compound was dissolved in dimethyl sulfoxide and doses of 10 mg/kg, 30 mg/kg, and 100 mg/kg were injected 15 mintures prior to irritant. The irritant, 3% oxazolone in acetone, was added to the surface of the ear, 5 μL added to the upper surface and 5 μL added to the lower surface. After twenty four hours the thickness of the ear was measured to 0.01 mm by a micrometer with loose drag, positioned at the lateral-most edge of the mid-point of the pinna. Data were calculated as the inhibition of increased ear thickness compared to control animals' receiving only the irritant. In general, % inhibition of greater than 20% is statistically significant (p<0.05 or less, Student's t-test for unpaired data).

The structures appear in SMILES notation.

As to `O=C(Nc1ccc(C(=O)O)cc1)SCCC1c2cc(Br)ccc2-c2ccc(Br)cc21` [Example 28], in assay [1], the “RPA (p.o.) 100 mg/kg inhibition” value is 1%. In addition, in assay [2] (100 mg/kg), the “AA (i.p.) % inhibition at 100 mg/kg (inhibited plasma fibrinogen in arthritis model)” value (“AA (i.p.) % inhibition at 100 mg/kg” below) is reported as 72% and the “AA (p.o.) % inhibition at 100 mg/kg (inhibited plasma fibrinogen in arthritis model)” value (shortened to “AA (p.o.) % inhibition at 100 mg/kg”) was 41%.

Take `O=C(CCCC1c2ccccc2-c2ccccc21)Nc1ccc(C(=O)O)cc1` [Example 25, 4-[9H-(Fluoren-9-yl)]butyric acid-4-carboxyanilide]: in assay [1], the “RPA (p.o.) 100 mg/kg inhibition” value was 0%. Also, the “AA (p.o.) % inhibition at 100 mg/kg” value in assay [2] (100 mg/kg) is 15%.

For the compound `O=C(CCC1c2ccccc2-c2ccccc21)Nc1ccccc1C(=O)O` [Example 14, N-[3-(9-Fluorenyl)propionyl]anthranilic acid], the “Inhibition of plasma fibrinogen levels” value in assay [2] (10 mg/kg) turned out to be 22%; in assay [2] (30 mg/kg), 19%; in assay [2] (100 mg/kg), 51%.

`O=C(Nc1ccc(C(=O)O)cc1)SCCC1c2cc(Cl)ccc2-c2ccc(Cl)cc21` [Example 27]: in assay [2] (100 mg/kg), the “AA (i.p.) % inhibition at 100 mg/kg” value was found to be 54% and the “AA (p.o.) % inhibition at 100 mg/kg” value came to 52%.

Take `Cc1ccc2c(c1)C(CCOC(=O)Nc1ccc(C(=O)O)cc1)c1cc(C)ccc1-2` [Example 8, N-[9H-(2,7-Dimethylfluorenyl-9-ethoxycarbonyl)]amino-4-benzoic acid]: in assay [1], the “RPA (p.o.) 100 mg/kg inhibition” value was 0%. Further, in assay [2] (100 mg/kg), the “AA (i.p.) % inhibition at 100 mg/kg” value was 69% and the “AA (p.o.) % inhibition at 100 mg/kg” value turned out to be 48%.

As to `O=C(Nc1ccc(C(=O)O)cc1)OCCCC1c2ccccc2-c2ccccc21` [Example 23, 4-[3-(9H-Fluoren-9-yl)propoxycarbonyl]-aminobenzoic acid], in assay [1], the “RPA (p.o.) 100 mg/kg inhibition” value is listed as 1%.

On to `O=C(Nc1ccc(C(=O)O)cc1)OCCC1c2cc(Cl)ccc2-c2ccc(Cl)cc21` [Example 9], for which the “RPA (p.o.) 100 mg/kg inhibition” value in assay [1] worked out at 54%. For the same compound, in assay [2] (100 mg/kg), the “AA (i.p.) % inhibition at 100 mg/kg” value came to 78% and the “AA (p.o.) % inhibition at 100 mg/kg” value was found to be 38%.

As to `O=C(Nc1ccc(C(=O)O)cc1)OCCC1c2ccccc2-c2ccccc21` [Example 7, N-[9H-(Fluorenyl-9-ethoxycarbonyl)]amino-4-benzoic acid], the “Inhibition of increased ear thickness” value was 46% in assay [3] (i.p., 10 mg/kg); 82% in assay [3] (i.p., 30 mg/kg); 79% in assay [3] (i.p., 100 mg/kg); 50% in assay [3] (orally, dose of this value not stated (100 and 300 mg/kg in method)). Besides, in assay [1], the “RPA (p.o.) 100 mg/kg inhibition” value worked out at 25%. Also, in assay [2] (100 mg/kg p.o., n=5, without adjuvant, basal 2.44±0.08 mg/ml), the “Plasma fibrinogen level, drug by itself” value was 4.8 ± 0.6 mg/mL. Moreover, the “Maximum inhibition of plasma fibrinogen” value in assay [2] (given orally, maximum achieved at 3 mg/kg) turned out to be 50%. Moreover, in assay [2] (100 mg/kg), the “AA (i.p.) % inhibition at 100 mg/kg” value is listed as 63%. In addition, the “AA (p.o.) % inhibition at 100 mg/kg” value in assay [2] (100 mg/kg) turned out to be 39%.

`O=C(Nc1ccc(C(=O)O)cc1)SCCC1c2ccccc2-c2ccccc21` [Example 26, N-[2-(9H-Fluoren-9-yl)ethylthioxycarbonyl]-4-aminobenzoic acid]: in assay [2] (100 mg/kg), the “AA (i.p.) % inhibition at 100 mg/kg” value is recorded as 70% and the “AA (p.o.) % inhibition at 100 mg/kg” value came to 56%.
